Measurements published in the NIST ThermoML archive (doi:10.1021/je200681k).
± gives the expanded uncertainty stated by the source.

Assay: not given
Settings: Crystal; DTA

**Q.** For `CC(CC(=O)O)CC(=O)O` [3-methylpentanedioic acid], which Normal melting temperature is on record?
**A.** Its Normal melting temperature is 85.46 ± 0.53 °C.

**Q.** For `O=C(O)CCCCCC(=O)O` [1,7-heptanedioic acid], which Normal melting temperature is on record?
**A.** The Normal melting temperature was 104.2 ± 0.53 °C.

**Q.** Which Normal melting temperature does the source give for `O=C(O)c1ccccc1` [benzoic acid] here?
**A.** The Normal melting temperature was 122.93 ± 0.53 °C.

**Q.** With `CC(C(=O)O)C(C)C(=O)O` (stereo not drawn) [2,3-dimethyl-1,4-butanedioic acid] as the compound, how does the Normal melting temperature read?
**A.** Its Normal melting temperature is 121.33 ± 0.53 °C.

Assay: Molar enthalpy of transition or fusion
Settings: Crystal; DSC

**Q.** For `CC(CC(=O)O)CC(=O)O` [3-methylpentanedioic acid], which “Molar enthalpy of transition or fusion” value is on record?
**A.** Its value is 7.41 ± 0.335 kcal/mol.

**Q.** Which “Molar enthalpy of transition or fusion” value does the source give for `O=C(O)CCCCCC(=O)O` [1,7-heptanedioic acid] here?
**A.** The value was 6.88 ± 0.287 kcal/mol.

**Q.** With `O=C(O)c1ccccc1` [benzoic acid] as the compound, how does the “Molar enthalpy of transition or fusion” value read?
**A.** The value was 4.47 ± 0.172 kcal/mol.

**Q.** With `CC(C(=O)O)C(C)C(=O)O` (stereo not drawn) [2,3-dimethyl-1,4-butanedioic acid] as the compound, how does the “Molar enthalpy of transition or fusion” value read?
**A.** The value was 4.04 ± 0.167 kcal/mol.
